Ki data for two compounds are collected here from BindingDB's records for doi:10.1016/S0960-894X(00)80308-X (1993).

The structures appear in SMILES notation.

The target in this test is Human immunodeficiency virus type 1 protease (Human immunodeficiency virus 1, UniProt Q72874). Briefly: ChEBML_159632. The procedure:
Inhibitory concentration required to inhibit HIV-1 protease was determined

As usually defined, the Ki is a measure of affinity in units of concentration, obtained from inhibition or displacement. Read a high Ki as lower affinity. For `CC(C)(C)OC(=O)N[C@H](C(=O)C(=C=N)c1ccc([N+](=O)[O-])cc1)C(=O)C(N)c1ccccc1` (some centres not stated), the Ki came out at 30 µM.

The compound `N=C=C(C(=O)[C@H](Cc1ccccc1)NC(=O)OCc1ccccc1)c1ccc([N+](=O)[O-])cc1` came in with an inhibitory constant (Ki) of 30 µM. This lies in the double-digit micromolar range.
